Data set [1] deals with T1, Lysosomal acid glucosylceramidase (Homo sapiens) (UniProt P04062).
T1 sequence (whole entry): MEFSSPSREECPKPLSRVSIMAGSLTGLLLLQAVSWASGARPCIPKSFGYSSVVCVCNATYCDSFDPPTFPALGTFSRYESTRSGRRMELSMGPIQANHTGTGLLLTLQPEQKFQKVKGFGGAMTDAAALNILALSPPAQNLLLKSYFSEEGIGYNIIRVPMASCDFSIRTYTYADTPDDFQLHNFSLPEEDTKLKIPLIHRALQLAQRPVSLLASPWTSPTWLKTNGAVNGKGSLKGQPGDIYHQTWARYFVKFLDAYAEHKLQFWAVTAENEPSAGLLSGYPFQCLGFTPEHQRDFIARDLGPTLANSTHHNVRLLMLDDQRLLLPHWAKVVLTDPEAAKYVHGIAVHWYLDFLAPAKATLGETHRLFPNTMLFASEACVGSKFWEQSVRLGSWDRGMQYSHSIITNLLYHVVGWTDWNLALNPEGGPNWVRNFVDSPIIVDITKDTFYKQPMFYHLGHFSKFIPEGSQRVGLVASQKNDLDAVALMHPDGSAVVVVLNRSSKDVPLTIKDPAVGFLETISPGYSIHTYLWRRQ
As to conditions: 50 uM.
Description: Inhibition of imiglucerase in human fibroblasts using 4-methylumbelliferyl-beta-D-glucopyranoside as substrate at 50 uM after 24 hrs

Data set [2] concerns the target T2, Lysosomal acid glucosylceramidase (Homo sapiens, UniProt P04062).
T2 sequence (P04062 whole entry): T1 sequence (whole entry)
As to the kind of experiment: Inhibition of human recombinant imiglucerase using 4-methylumbelliferyl-beta-D-glucopyranoside as substrate preincubated for 30 mins at pH 7 before substrate addition measured after 10 mins.

The target of data set [3] is T3, Beta-galactosidase (Bos taurus) (UniProt Q58D55).
T3 sequence (whole entry): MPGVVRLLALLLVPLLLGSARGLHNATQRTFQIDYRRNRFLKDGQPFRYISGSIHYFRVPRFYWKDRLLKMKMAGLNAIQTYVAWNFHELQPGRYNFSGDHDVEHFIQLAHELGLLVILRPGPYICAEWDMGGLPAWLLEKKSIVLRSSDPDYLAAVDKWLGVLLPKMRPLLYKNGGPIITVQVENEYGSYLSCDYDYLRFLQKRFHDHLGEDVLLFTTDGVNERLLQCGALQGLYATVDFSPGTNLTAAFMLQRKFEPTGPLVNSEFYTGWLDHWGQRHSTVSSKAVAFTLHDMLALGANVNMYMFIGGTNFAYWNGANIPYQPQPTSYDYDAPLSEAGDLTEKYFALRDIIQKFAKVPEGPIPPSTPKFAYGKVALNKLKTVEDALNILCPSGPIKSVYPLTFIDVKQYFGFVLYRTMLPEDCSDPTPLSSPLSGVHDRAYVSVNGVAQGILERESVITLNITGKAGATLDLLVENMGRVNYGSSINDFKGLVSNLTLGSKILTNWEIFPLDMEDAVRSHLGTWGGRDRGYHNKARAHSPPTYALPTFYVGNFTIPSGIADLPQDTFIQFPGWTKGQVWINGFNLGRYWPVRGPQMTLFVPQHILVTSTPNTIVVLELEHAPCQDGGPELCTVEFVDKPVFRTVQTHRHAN
As to the kind of experiment: Inhibition of bovine liver beta-galactosidase at 200 uM.

In data set [4] the target is T2, Lysosomal acid glucosylceramidase. As to the kind of experiment: Competitive inhibition of human recombinant imiglucerase using 4-methylumbelliferyl-beta-D-glucopyranoside as substrate preincubated for 30 mins at pH 5.2 before substrate addition measured after 10 mins by Lineweaver-Burk or Dixon plot analysis.
The target is the same in data set [5]. As to the kind of experiment: Competitive inhibition of human recombinant imiglucerase using 4-methylumbelliferyl-beta-D-glucopyranoside as substrate preincubated for 30 mins at pH 7 before substrate addition measured after 10 mins by Lineweaver-Burk or Dixon plot analysis.
Data set [6] in a line: Cytotoxicity against human fibroblasts up to 300 uM after 24 hrs by MTT assay. The class given is cell-based. As to conditions: fibroblast. Background: Formazan colour is commonly taken as a measure of viable cells.
For data set [7], the target named is T2, Lysosomal acid glucosylceramidase. Kind of data set: Inhibition of human recombinant imiglucerase using 4-methylumbelliferyl-beta-D-glucopyranoside as substrate preincubated for 30 mins at pH 5.2 before substrate addition measured after 10 mins.
Data set [8] addresses Alpha-galactosidase (Coffea arabica) (UniProt Q42656). As to the kind of experiment: Inhibition of coffee beans alpha-galactosidase at 200 uM.
Data set [9] deals with T1, Lysosomal acid glucosylceramidase (Homo sapiens). As to the kind of experiment: Inhibition of imiglucerase in human fibroblasts using 4-methylumbelliferyl-beta-D-glucopyranoside as substrate at 200 uM after 24 hrs.
Data set [10] shares this target. Kind of data set: Ratio of IC50 for human recombinant imiglucerase at pH 5.2 to IC50 for human recombinant imiglucerase at pH 7.
Data set [11] relates to Saccharomyces cerevisiae. Kind of data set: Inhibition of yeast alpha-glucosidase at 200 uM.

pIC50, pKi: −log10 of the molar value. Activity calls are given as the source filed them. No cut-off for these calls is given here.

Alpha-galactosidase (Coffea arabica), sequence (Q42656 16-378 limits assumed): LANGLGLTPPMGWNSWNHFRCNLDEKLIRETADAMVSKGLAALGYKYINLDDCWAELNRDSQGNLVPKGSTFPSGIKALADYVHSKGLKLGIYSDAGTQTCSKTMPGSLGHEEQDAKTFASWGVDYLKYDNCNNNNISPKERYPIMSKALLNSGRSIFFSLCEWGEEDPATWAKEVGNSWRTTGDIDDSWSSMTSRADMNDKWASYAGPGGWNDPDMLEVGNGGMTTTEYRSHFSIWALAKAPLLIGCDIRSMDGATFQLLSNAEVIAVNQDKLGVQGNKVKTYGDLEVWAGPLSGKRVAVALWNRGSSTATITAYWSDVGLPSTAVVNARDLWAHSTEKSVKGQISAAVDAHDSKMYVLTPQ

Usually inhibition stands for the drop in the measured response relative to a control, in per cent. In the case of `CCCCCCCCCN[C@H]1[C@H](O)[C@@H](O)[C@H](O)[C@@H](O)[C@@H]1O`, the inhibition in data set [1] turned out to be 29%.

One may read the pIC50 as −log10 of the IC50, conventionally taken in molar units. The term pKi denotes −log10 of the Ki, conventionally taken in molar units. Turning to `O=C(CCCN[C@@H]1[C@H](O)[C@H](O)[C@@H](O)[C@H](O)[C@H]1O)NC12CC3CC(CC(C3)C1)C2`, the negative-log IC50 (pIC50) is 6.43 in [2] and 5.27 in data set [7]. For the same compound, the inhibition came out at 24% in data set [3] and 1% in [9]. For the same compound, the negative logarithm of the Ki (pKi) is 5.54 in data set [4] and 6.60 in data set [5]. Besides, the Activity entry in data set [6] was “Non-toxic”. The inhibition entry in data set [8] and in data set [11] was “inactive” in each case. Besides, in [10], the Ratio IC50 is 12.

With `O=C(CCCN[C@H]1[C@H](O)[C@@H](O)[C@H](O)[C@@H](O)[C@@H]1O)NC12CC3CC(CC(C3)C1)C2`, the pIC50 is 4.24 in [2] and 3.59 in data set [7]. In addition, the inhibition entry in data set [3], in data set [8] and in data set [11] was “inactive” in each case. The pKi in data set [4] is 3.74; in data set [5], 4.35. In addition, in data set [6], the Activity entry is given as “Non-toxic”. Further, the inhibition in [9] turned out to be 0%. Also, the Ratio IC50 in [10] amounted to 4.

Compound `CCCCCCCCCN[C@@H]1[C@H](O)[C@H](O)[C@@H](O)[C@H](O)[C@H]1O` gave an inhibition in [1] of 95%.

(Values after ChEMBL document CHEMBL3217407, “Adamantane substituted aminocyclitols as pharmacological chaperones for Gaucher disease” (Medchemcomm, 2013).)
